According to patent publication US20250375417A1, “OREXIN RECEPTOR 2 (OX2R) AGONIST FOR USE IN NARCOLEPSY TYPE 1 (NT1)” (TAKEDA PHARMACEUTICAL COMPANY LIMITED, priority 2024, published 2025):

Experiments:
participants with NT1 [1] = experiment: Clinical and Patient Global Impression (CGI, PGI), Phase 2 NT1 trial; assay type: in vivo, human; settings: Week 8, patients treated with Compound A
Source text: The Patient Global Impression Scale-Severity Scale (PGI-S) provides a participant-perceived assessment of overall symptoms (4-point Likert-type scale, “normal to “severe”) administered at baseline while the Patient Global Impression-Improvement Scale (PGI-I) provides a participant-perceived summary of global treatment effect on daytime sleepiness and cataplexy (7-point Likert-type scale, “very much improved” to “very much worse”) administered at different points during treatment.
The Clinical Global Impression Scale provides an overall clinician-determined summary measure of a participant's treatment experience that takes into account all available information, including knowledge of the participant's history, psychosocial circumstances, symptoms, behavior, and the impact of the symptoms on the participant's ability to function. The assessment consists of various subscales. One is the Clinical Global Impression-Severity (CGI-S). The CGI-S assesses the severity of overall narcolepsy symptoms. It uses a 7-point Likert-type scale ranging from “normal, not at all ill” to “among the most extremely ill patients.”
Another subscale is the Clinical Global Impression-Improvement (CGI-I), which assesses improvement of symptoms. The CGI-I asks clinicians to rate the extent to which their patients' current overall narcolepsy symptoms are improved (compared with the start of the study). […]

patients with NT1 = system: patients with NT1; design: species or system human; settings: in vivo
participants with NT1 [2] = experiment: Functional Impacts of Narcolepsy Instrument (FINI), Phase 2 NT1 trial; assay type: in vivo, human; settings: range across Compound A doses
Source text: The functional impact of NT1 on subjects can be assessed by the FINI. The FINI is a fit-for-purpose 28-item instrument developed by the sponsor to ensure easy to interpret concepts that are meaningful to narcolepsy patients. The FINI measures the functional impacts of narcolepsy across 6 domains: Tiredness (items 1-7), Cognitive Functioning (items 8-12), Cataplexy (items 13-17), Social Activities (items 18-21), Everyday Activities (items 22-25), and Everyday Responsibilities (items 26-28). Each item asks about the impact that narcolepsy has had on their daily functioning during the past 7 days, and scored from 0-4, where 0 indicates the best health and 4 the worst. There is no total score; for each participant, an average score is calculated for each domain, if at least half the items in the domain have been answered:
Sum of responses in the domain/Number of completed items in the domain
The average domain score is then standardized to a 0-100 scale, where 0 indicates the best health and 100 the worst health. A decrease from baseline would thus indicate improved health:
Standardized score=average score/4×100
An analysis of exploratory data from the trial investigated the effect of Compound A on functioning and HRQoL in individuals with ICSD-3 confirmed NT1. Participants aged 18-70 years (Japan: 16-70), with an Epworth Sleepiness Scale (ESS) score>12, and ≥4 partial/complete episodes of cataplexy/week were eligible for inclusion. Participants were randomized to oral Compound A (0.5 mg twice 3 hours apart, 2 mg twice 3 hours apart, 2 mg then 5 mg 3 hours later, or 7 mg once-daily), or placebo. Exploratory endpoints included 3 domains (social activities, everyday activities, and everyday responsibilities) from the 6-domain Functional Impacts of Narcolepsy Instrument (FINI) in which each item uses 5-point Likert scale and higher standardized domain scores (0-100) indicate more severe impact; the 36-item short-form (SF-36); and the EuroQoL 5-Dimensions 5-Levels (EQ-5D-5L) questionnaire.

participants with NT1 [3] = experiment: Daily sleep diaries (disturbing dreams), Phase 2 NT1 trial; assay type: in vivo, human
Source text: Polysomnography (PSG) was collected at baseline and after 27 and 54 days of treatment. Sleep was manually scored following AASM guidelines; sleep metrics were extracted then computed by whole night and by quarter-night. Continuous accelerometry (Empatica EmbracePlus watch) allowed assessment of sleep in a naturalistic manner at home. Daily sleep diaries were used to capture subjective reports. Mixed effects models were fit with treatment, quarter-night, visit, and their interactions as fixed effects and random intercepts per subject. A reference PSG dataset (Vilela M, et al. J Sleep Res 2024; e14216) from CHU Montpellier (49 clinical controls and 114 patients with NT1, all drug-free) was analyzed to establish DNS characteristics of NT1.
At baseline, participants reported disturbing dreams, which contribute to DNS, an average of 2.8 nights/week (no significant differences across cohorts) in response to “Did you have disturbing dreams, nightmares, or frightening dreams during the night?” These reductions potentially relate to improvements in REM regulation with Compound A.

CCS(=O)(=O)N[C@@H]1[C@H](Cc2cccc(-c3cc(F)cc(F)c3)c2F)N(C(=O)C(C)(C)O)CC1(F)F [Compound A, N-{(2S,3R)-4,4-difluoro-1-(2-hydroxy-2-methylpropanoyl)-2-[(2,3′,5′-trifluoro[1,1′-biphenyl]-3-yl)methyl]pyrrolidin-3-yl}ethanesulfonamide]
Patients much/very much improved on the PGI and CGI (participants with NT1 [1]): > 70%
Improvement on CPAL total errors (patients with NT1): statistically significant across all doses
Improvement on ONB reaction time (patients with NT1): statistically significant across all doses
Improvement on iDSST-s number correct (patients with NT1): statistically significant across all doses
FINI-Everyday Activities, LS mean change from baseline to Week 8 (participants with NT1 [2]): −41.4 to −54.5
FINI-Everyday Responsibilities, LS mean change from baseline to Week 8 (participants with NT1 [2]): −35.0 to −53.7
FINI-Social Activities, LS mean change from baseline to Week 8 (participants with NT1 [2]): −29.9 to −43.1
Rate of disturbing dreams, average estimated change from baseline (participants with NT1 [3]; across all treated cohorts and weeks): −1.5 nights/week
Rate of disturbing dreams, range of estimated change from baseline (participants with NT1 [3]; range across all treated cohorts and weeks): −1.8 to −0.8 nights/week
